{
  "source": "patent US12428369B2",
  "about": "“Crystal form of aromatic vinyl derivatives, and preparation method therefor and use thereof” (GUANGZHOU MAXINOVEL PHARMACEUTICALS CO., LTD., priority 2020, dated 2025)",
  "format_in_all_cases": "physicochemical",
  "key": {"[1]": {"assay": "Solid-state stability: content and related substances by HPLC", "protocol": "(§1) The samples of crystal forms A, B, and C were weighed and added to a 20 mL colorless transparent glass bottle, respectively, and the sample bottles were respectively placed under the corresponding influencing factors and acceleration conditions (the sample bottles under humidity conditions were sealed with tin foil and placed with holes, and the other samples were covered tightly and placed), taken out after being placed for 1 week and 2 weeks respectively, and the sample content and related substances under various conditions were detected by HPLC; according to the same method as above, samples were respectively weighed and placed under a corresponding influencing factor and accelerated condition, and were taken out after being placed for 2 weeks for observing the appearance and XRPD characterization of each sample, and the physical stability of each crystal form was examined, and the test methods are detailed in table 14 and table 15; at the same time, 2 samples of the crystal forms A, B, and C of the compound as shown in formula I were respectively weighed accurately into 20 mL colorless transparent glass bottles and covered tightly, placed in a −20° C. refrigerator, and taken out as a standard for HPLC analysis at 2 weeks, and the test results are detailed in table 16 and table 17."}, "[2]": {"assay": "Dynamic vapor sorption (DVS) analysis", "conditions": "25° C.", "protocol": "(§2) The hygroscopic characteristics of the sample were tested when the humidity changed from 0% RH to 95% RH, and the dehumidifying characteristics of the sample were tested when the humidity changed from 95% RH to 0% RH. The humidity change in each step size was 5% RH, the equilibrium standard was that the weight change rate within 10 min was less than 0.01%/min, and the longest equilibrium time was 2 hours.\nas §2, with “5” for “10”"}, "[3]": {"assay": "Solid-state stability: appearance and crystal form (XRPD)", "protocol": "as §1"}, "[4]": {"assay": "Equilibrium solubility and dissolution rate in water, SGF, FaSSIF, FeSSIF", "conditions": "37° C.", "protocol": "To further study whether the equilibrium solubility and dissolution rate of crystal forms A, B and C are different in pure water and physiological related media in vivo, the equilibrium solubility and dissolution rate of […] crystal forms in water, simulated gastric fluid (SGF), fasted-state simulated intestinal fluid (FaSSIF) and fed state simulated intestinal fluid (FeSSIF) were tested respectively."}, "[5]": {"assay": "Crystal form conversion on heating", "conditions": "heated to 200° C.", "protocol": "100 mg of the compound as shown in formula I sample was weighed and added to a bottle, then 20 times the volume of methanol was added to the bottle, and the mixture was magnetic stirred and slurried for 14 days at room temperature.\n100 mg of the compound as shown in formula I sample was weighed and added to a glass bottle, and 100 times the volume of ethyl acetate (EA) and 20 times the volume of methanol (MeOH) were added to the bottle, and the sample was placed on a magnetic heating stirrer. The mixture was magnetic stirred to fully dissolve at a water bath of 50° C., filtered and the filtrate was slowly cooled to room temperature at a rate of 6° C./h, overnight, filtered under reduced pressure, and the solid was dried at 70° C. for 4 hours.\n100 mg of the compound as shown in formula I sample was weighed and added to a bottle, then 30 times the volume of acetonitrile (ACN) (sample mass (g)×volume multiples) was added to the bottle, and the mixture was magnetic stirred and slurried for 2 days at room temperature, filtered under reduced pressure, and the solid was collected, and dried at 40° C. for 4 hours. The solid after drying was characterized, and the crystal form was defined as a crystal form VIII, and the XRPD pattern of the crystal form VIII is as shown in FIG. 20. […]"}, "[6]": {"conditions": "Acceleration (40° C./75% RH), 1 week"}, "[7]": {"conditions": "Acceleration (40° C./75% RH), 2 weeks"}, "[8]": {"conditions": "High humidity (92.5% RH), 1 week"}, "[9]": {"conditions": "High humidity (92.5% RH), 2 weeks"}, "[10]": {"conditions": "High temperature (60° C.), 1 week"}, "[11]": {"conditions": "High temperature (60° C.), 2 weeks"}, "[12]": {"conditions": "illumination (4500 LuX), 1 week"}, "[13]": {"conditions": "illumination (4500 LuX), 2 weeks"}, "[14]": {"conditions": "Illumination (4500 Lux), 2 weeks"}},
  "data": [
    {"smiles": "Cc1c(/C=C/c2cc(CN[C@@](C)(CO)C(=O)O)ccc2C(F)(F)F)cccc1-c1ccccc1", "note": "[Crystal form C]", "values": [
      {"measurement": "Content", "setting": "[1]; [6]", "value": 100.06, "unit": "%"},
      {"measurement": "Total related substances", "setting": "[1]; [6]", "value": 0.00, "unit": "%"},
      {"measurement": "Content", "setting": "[1]; [7]", "value": 99.89, "unit": "%"},
      {"measurement": "Total related substances", "setting": "[1]; [7]", "value": 0.00, "unit": "%"},
      {"measurement": "Content", "setting": "[1]; Control, −20° C., 2 weeks", "value": 100.00, "unit": "%"},
      {"measurement": "Total related substances", "setting": "[1]; Control, −20° C., 2 weeks", "value": 0.00, "unit": "%"},
      {"measurement": "Content", "setting": "[1]; [8]", "value": 101.55, "unit": "%"},
      {"measurement": "Total related substances", "setting": "[1]; [8]", "value": 0.00, "unit": "%"},
      {"measurement": "Content", "setting": "[1]; [9]", "value": 100.59, "unit": "%"},
      {"measurement": "Total related substances", "setting": "[1]; [9]", "value": 0.00, "unit": "%"},
      {"measurement": "Content", "setting": "[1]; [10]", "value": 98.41, "unit": "%"},
      {"measurement": "Total related substances", "setting": "[1]; [10]", "value": 0.00, "unit": "%"},
      {"measurement": "Content", "setting": "[1]; [11]", "value": 100.18, "unit": "%"},
      {"measurement": "Total related substances", "setting": "[1]; [11]", "value": 0.00, "unit": "%"},
      {"measurement": "Content", "setting": "[1]; [12]", "value": 102.18, "unit": "%"},
      {"measurement": "Total related substances", "setting": "[1]; [12]", "value": 0.52, "unit": "%"},
      {"measurement": "Content", "setting": "[1]; [13]", "value": 98.64, "unit": "%"},
      {"measurement": "Total related substances", "setting": "[1]; [13]", "value": 1.56, "unit": "%"},
      {"measurement": "hygroscopicity", "setting": "[2]; assessment in words", "value": "hygroscopic"},
      {"measurement": "weight gain", "setting": "[2]; from 0% RH to 95% RH", "value": 4.767, "unit": "%"},
      {"measurement": "Appearance", "setting": "[3]; [7]", "value": "Off-white"},
      {"measurement": "Crystal form (XRPD) after storage", "setting": "[3]; [7]", "value": "Crystal form C"},
      {"measurement": "Appearance", "setting": "[3]; Control, −20° C., 2 weeks", "value": "Off-white"},
      {"measurement": "Crystal form (XRPD) after storage", "setting": "[3]; Control, −20° C., 2 weeks, listed as Crystal form C-Control", "value": "Crystal form C"},
      {"measurement": "Appearance", "setting": "[3]; [9]", "value": "Off-white"},
      {"measurement": "Crystal form (XRPD) after storage", "setting": "[3]; [9]", "value": "Crystal form C"},
      {"measurement": "Appearance", "setting": "[3]; [11]", "value": "Off-white"},
      {"measurement": "Crystal form (XRPD) after storage", "setting": "[3]; [11]", "value": "Crystal form C"},
      {"measurement": "Appearance", "setting": "[3]; [14]", "value": "Off-white"},
      {"measurement": "Crystal form (XRPD) after storage", "setting": "[3]; [14]", "value": "Crystal form C"},
      {"measurement": "physical stability", "setting": "[3]; four storage conditions, 2 weeks (conclusion)", "value": "good"},
      {"measurement": "Appearance", "setting": "[3]; high temperature, high humidity, illumination and acceleration, 2 weeks (conclusion)", "value": "off-white"},
      {"measurement": "Solubility", "setting": "[4]; FaSSIF (rows r12-r14), 0.5 hours, listed as C", "value": 9.1, "unit": "µg/mL"},
      {"measurement": "Solubility", "setting": "[4]; FaSSIF (rows r12-r14), 2 hours, listed as C", "value": 2.2, "unit": "µg/mL"},
      {"measurement": "Solubility", "setting": "[4]; FaSSIF (rows r12-r14), 24 hours, listed as C", "value": 4.5, "unit": "µg/mL"},
      {"measurement": "Solubility", "setting": "[4]; FaSSIF as printed (second set, rows r15-r17), 0.5 hours, listed as C", "value": 181.7, "unit": "µg/mL"},
      {"measurement": "Solubility", "setting": "[4]; FaSSIF as printed (second set, rows r15-r17), 2 hours, listed as C", "value": 174.3, "unit": "µg/mL"},
      {"measurement": "Solubility", "setting": "[4]; FaSSIF as printed (second set, rows r15-r17), 24 hours, listed as C", "value": 166.6, "unit": "µg/mL"},
      {"measurement": "Solubility", "setting": "[4]; SGF, 0.5 hours", "value": 0.3, "unit": "µg/mL"},
      {"measurement": "Solubility", "setting": "[4]; SGF, 2 hours", "value": 0.2, "unit": "µg/mL"},
      {"measurement": "Solubility", "setting": "[4]; SGF, 24 hours", "value": 0.5, "unit": "µg/mL"},
      {"measurement": "Solubility", "setting": "[4]; Water, 0.5 hours", "value": 1.7, "unit": "µg/mL"},
      {"measurement": "Solubility", "setting": "[4]; Water, 2 hours", "value": 6.5, "unit": "µg/mL"},
      {"measurement": "Solubility", "setting": "[4]; Water, 24 hours", "value": 1.8, "unit": "µg/mL"},
      {"measurement": "crystal form after heating", "setting": "[5]", "value": "converted into the crystal form A"}
    ]}
  ]
}
